# Reference: patent US12156888B2, “CAR T-cells for the treatment of bone metastatic cancer” (H. Lee Moffitt Cancer Center and Research Institute, Inc., priority 2018, dated 2024)
# Key:
# [1] = tested on: C4-2B luciferase expressing cells; experiment: Intratibial C4-2B bone metastatic CRPC model with human γδ T-cells, zoledronate or vehicle; type: in vivo, NSG mice; details: for Percentage of CD3Vd2 positive cells in flushed tibias, higher than control: zoledronate 0.1 mg/Kg
# Description: FIGS. 7A to 7D show C4-2B cells inoculated into NSG mice and treated with either zoledronate (ZOL) or vehicle control. After establishment and randomization mice ([…]) were inoculated with 3.5×10^6 […]. Subsets of mice were removed from the study at 1, 3 and 5 days late. […] Number illustrate the percentage of γδ T-cells in the total marrow analysis over time. […] FIG. 7C is a graph showing RLUs quantitated over time and the growth rates calculated for each group. Asterisk indicates statistical significance. Mice at the final time point were assessed for γδ T-cell localization (CD3), apoptosis (cleaved caspase-3; CC3) and proliferation (phospho histone H3; pHH3). […] Arrows indicate positivity. DAPI was used as a nuclear counterstain.
# Next, the anti-tumor activity of γδ T-cells on established bone metastatic CRPC lesions in vivo was assessed. NSG (NOD.Cg-Prkdcscid112rgtm1Wjl/SzJ) immunocompromised mice were intratibially inoculated with C4-2B luciferase expressing cells (1×10^5) and once established were randomized in zoledronate (0.1 mg/Kg) or vehicle (saline) groups (n=25 per group) based on relative luminescence unit (RLU) measurement. One week later, mice received tail vein injections of human γδ T-cells (3.5×10^6/mouse).
# Groups of mice (n=5) were removed from the study 1, 3, 5 days subsequent to injection with tibias being flushed and assessed for human CD3 Vd2 content by flow cytometry. […] Bioluminescence was used as a correlate of tumor growth.
# γδ (CAR)-T cells = experiment: IL-2 secretion by γδ (CAR)-T cells; type: cell-based
# C4-2B-PSCA cells = experiment: RTCA cytotoxicity assay of γδ T-cells; type: cell-based, human
# Experimental: Summary of RTCA analysis of C4-2B-PSCA, or control PSCA null C4-2B, cells co-cultured with γδ CAR-T cells, or untransduced controls (UT). FIGS. […] show tumor cells without ZOL pretreatment. FIGS. 6C and 6D show tumor cells with 2 h ZOL pretreatment. FIGS. 6A and 6C show tumor cell viability 2 h post co-culture. FIGS. 6B and 6D show 30 h post co-culture.
# The CAR- and TCR-mediated mechanism of tumor cell recognition were tested using the CRPC C4-2B cell line.
# [2] = tested on: C4-2B-PSCA-Luc human CRPC prostate cancer cells; experiment: IPP production in response to zoledronate, LC-MS/MS of cell extracts; type: cell-based; details: C4-2B-PSCA-Luc cells, 10 μM or 25 μM, 1 h or 18 h
# Experimental: (§1) Following treatment of tumor cells with ZOL, IPP was measured in cell extracts by tandem LC-MS/MS, using AppCp as an internal standard. […] ZOL treatment was administered for 1 h or 18 h, at 2 different doses: 10 μM or 25 μM.
# (§2) In order to verify that zoledronate effectively induces IPP accumulation in a model system, C4-2B-PSCA-Luc human CRPC prostate cancer cells were treated with 10 μM or 25 μM of zoledronate, for 1 h or 18 h. Intracellular IPP levels were measured using a semi-quantitative mass spectrometry assay. T47D breast cancer cells were used as positive control, and Panc02.03 pancreatic cancer cells were used as negative controls.
# T47D breast cancer cells = experiment: as above; type: cell-based
# Experimental: as §1, §2
# [3] = tested on: Panc02.03 pancreatic cancer cells; experiment: as above; type: cell-based; details: Panc02.03 cells, prolonged treatment with high doses
# Experimental: as §1, §2
# [4] = tested on: PSCA-expressing C42B prostate cancer cells; experiment: IFNγ ELISA of co-culture supernatants; type: cell-based, human
# Experimental: IFNγ ELISA of co-culture supernatants of C4-2B-PSCA cells exposed to media (negative control) or the indicated T cells, in presence of increasing concentrations of Zol (0, 0.4 and 0.8 μM).
# Four variants of the anti-PSCA CAR were generated containing either CD27 (CD27z), CD28 (CD28z), or 4-1BB (BBz) costimulation. The fourth variant contains a CD27 costimulatory domain where the TRAF-binding site has been replaced with an inert flexible linker (G4S). γδ CAR-T cells expressing either CAR variant (or GFP as controls) were generated, and cocultured with PSCA-expressing C42B prostate cancer cells, in presence or absence of zoledronate, at the indicated doses. The presence of interferon-γ in the supernatants (measured by ELISA) was used as a marker of T cell activation. CAR-expressing T cells (but not untransduced or GFP-transduced cells) reacted to target cells by producing interferon-γ (solid bars).
# γδ CAR-T cells recognize tumor cells via CAR and via TCR. The CAR- and TCR-mediated mechanisms of tumor cell recognition were tested using the CRPC C4-2BPSCA cell line. Cancer cells were treated with either untransduced (UT) control or CAR-expressing γδ T-cells, in the presence or absence of ZOL (0.4 μM). In presence of ZOL, control γδ T cells induced a cytotoxic effect at approx. 18 h, reflecting recognition of C4-2B-PSCA cells via TCR. […] The ability to induce a potent cytolytic effect with lesser cytokine production that can be modulated by ZOL is important since it may allow γδ (CAR−)T-cells to mediate more precise tumor killing, reducing the risk for complications related to massive cytokine release.
# [5] = study endpoint, compared to control
# [6] = coculture with PSCA-expressing C42B cells
structure (smiles),measurement,setting,value
O=P(O)(O)C(O)(Cn1ccnc1)P(=O)(O)O [zoledronate],"Percentage of CD3Vd2 positive cells in flushed tibias, higher than control",[1]; Day 1 after γδ T-cell injection,> 61%
same,"Percentage of CD3Vd2 positive cells in flushed tibias, higher than control",[1]; Day 3 after γδ T-cell injection,> 32%
same,"Percentage of CD3Vd2 positive cells in flushed tibias, higher than control",[1]; Day 5 after γδ T-cell injection,> 57%
same,"Apoptotic (cleaved caspase-3) cancer cells, tibia histology",[1]; [5],increased apoptotic
same,"Proliferative (phospo-Histone H3) cancer cells, tibia histology",[1]; [5],decreased proliferative
same,C4-2B growth rate (bioluminescence),"[1]; zoledronate group compared to controls, all with γδ T-cells",significantly slower
same,Effect of zoledronate on IL-2 secretion by γδ (CAR)-T cells,γδ (CAR)-T cells,increases IL-2 secretion
same,Time at which control (untransduced) γδ T cells induced a cytotoxic effect,C4-2B-PSCA cells,approx. 18 h
same,Effect of ZOL on cytolytic activity of γδ CAR-T,C4-2B-PSCA cells; ZOL 0.4 μM,greatly enhanced
same,Intracellular IPP levels,[2],produced high levels of IPP
same,Intracellular IPP levels,"T47D breast cancer cells; 1 h, high-dose zoledronate (doses 10 μM or 25 μM)",detectable over background
same,Intracellular IPP levels,"T47D breast cancer cells; 18 h, both doses (10 μM or 25 μM)",detectable over background
same,Intracellular IPP levels,[3],did not produce IPP
same,Effect of ZOL on IFNγ secretion,"[4]; coculture of γδ (CAR−)T-cells with C4-2BPSCA cells, Zol 0, 0.4 and 0.8 μM",enhanced IFNγ secretion
same,Effect of zoledronate on interferon production by γδ CAR-T cells,[4]; [6],enhanced interferon production
same,Effect of zoledronate on target recognition by GFP-transduced and untransduced γδ T cells,[4]; [6],induced target recognition
same,Effect of ZOL on IFNγ secretion,[4]; αβ T cells with C4-2BPSCA cells,not observed
